# From US20080153850A1, “Adamantyl Derivates as P2x7 Receptor Antagonists” (AstraZeneca AB, priority 2004, published 2008)
# Counter-ions that a name gives are not always drawn.
row,melting point,SMILES
1,194 to 195 °C (dec.),"O=C(NCC12CC3CC(CC(C3)C1)C2)c1cc(-c2nccnc2C(=O)O)ccc1Cl (as salt: sodium) [Example 6, 3-[4-Chloro-3-[[(tricyclo[3.3.1.1^3,7]dec-1-ylmethyl)amino]carbonyl]phenyl]-2-pyrazinecarboxylic acid, monosodium salt]"
2,186 to 187 °C (dec.),"O=C(O)Cc1ncccc1-c1ccc(Cl)c(C(=O)NCC23CC4CC(CC(C4)C2)C3)c1 (as salt: sodium) [Example 58, 3-[4-Chloro-3-[[(tricyclo[3.3.1.1^3,7]dec-1-ylmethyl)amino]carbonyl]phenyl]-2-pyridineacetic acid, monosodium salt]"
3,255 to 257 °C,"O=C(O)c1cccc(-c2ccc(Cl)c(C(=O)NCC34CC5CC(CC(C5)C3)C4)c2)c1 [Example 2, 4′-Chloro-3′-[[(tricyclo[3.3.1.1^3,7]dec-1-ylmethyl)amino]carbonyl]-[1,1′-biphenyl]-3-carboxylic acid]"
4,228 to 230 °C,"O=C(NCC12CC3CC(CC(C3)C1)C2)c1cc(-c2ccccc2C(=O)O)ccc1Cl [Example 3, 4′-Chloro-3′-[[(tricyclo[3.3.1.1^3,7]dec-1-ylmethyl)amino]carbonyl]-[1,1′-biphenyl]-2-carboxylic acid]"
5,215 to 220 °C (dec.),"N#CNc1cncc(-c2ccc(Cl)c(C(=O)NCC34CC5CC(CC(C5)C3)C4)c2)n1 [Example 4, 2-Chloro-5-[6-(cyanoamino)pyrazinyl]-N-(tricyclo[3.3.1.1^3,7]dec-1-ylmethyl)-benzamide]"
6,110 to 115 °C (dec.),"N#CNc1nccnc1-c1ccc(Cl)c(C(=O)NCC23CC4CC(CC(C4)C2)C3)c1 [Example 5, 2-Chloro-5-[3-(cyanamino)pyrazinyl]-N-(tricyclo[3.3.1.1^3,7]dec-1-ylmethyl)-benzamide]"
7,200 to 202 °C,"O=C(O)c1cccc(-c2cc(C(=O)NCC34CC5CC(CC(C5)C3)C4)c(Cl)cn2)c1 [Example 7, 3-[5-Chloro-4-[[(tricyclo [3.3.1.1^3,7]dec-1-ylmethyl)amino]carbonyl]-2-pyridinyl]-benzoic acid]"
8,245 °C (dec.),"CS(=O)(=O)Nc1nccnc1-c1ccc(Cl)c(C(=O)NCC23CC4CC(CC(C4)C2)C3)c1 [Example 8, 2-Chloro-5-[3-[(methylsulfonyl)amino)pyrazinyl]-N-(tricyclo[3.3.1.1^3,7]dec-1-ylmethyl)-benzamide]"
9,254 °C (dec.),"O=C(NCC12CC3CC(CC(C3)C1)C2)c1cc(-c2nccnc2-c2nnn[nH]2)ccc1Cl [Example 9, 2-Chloro-5-[3(1-H-tetrazol-5-yl)pyrazinyl]-N-(tricyclo[3.3.1.1^3,7]dec-1-ylmethyl)-benzamide]"
10,169 to 172 °C,"O=C(NCC12CC3CC(CC(C3)C1)C2)c1cc(-c2ncccc2C(=O)O)ccc1Cl [Example 10, 2-[4-Chloro-3-[[(tricyclo[3.3.1.1^3,7]dec-1-ylmethyl)amino]carbonyl]phenyl]-3-pyridinecarboxylic acid]"
11,284 to 287 °C,"O=C(O)c1ccnc(-c2ccc(Cl)c(C(=O)NCC34CC5CC(CC(C5)C3)C4)c2)c1 [Example 12, 2-[4-Chloro-3-[[(tricyclo[3.3.1.1^3,7]dec-1-ylmethyl)amino]carbonyl]phenyl]-4-pyridinecarboxylic acid]"
12,209 to 211 °C,"Cc1ccc(C(=O)O)c(-c2ccc(Cl)c(C(=O)NCC34CC5CC(CC(C5)C3)C4)c2)n1 [Example 13, 2-[4-Chloro-3-[[(tricyclo[3.3.1.1^3,7]dec-1-ylmethyl)amino]carbonyl]phenyl]-6-methyl-3-pyridinecarboxylic acid]"
13,107 to 110 °C,"C[C@H](Oc1ccccc1-c1ccc(Cl)c(C(=O)NCC23CC4CC(CC(C4)C2)C3)c1)C(=O)O [Example 14, (2S)-2-[[4′-chloro-3′-[[(tricyclo[3.3.1.1^3,7]dec-1-ylmethyl)amino]carbonyl][1,1′-biphenyl]-2-yl]oxy]-propanoic acid]"
14,208 to 210 °C,"O=C(O)COc1ccccc1-c1ccc(Cl)c(C(=O)NCC23CC4CC(CC(C4)C2)C3)c1 [Example 15, [[4′-Chloro-3′-[[(tricyclo[3.3.1.1^3,7]dec-1-ylmethyl)amino]carbonyl][1,1′-biphenyl]-2-yl]oxy]-acetic acid]"
15,163 to 164 °C,"O=C(O)CCOc1ccccc1-c1ccc(Cl)c(C(=O)NCC23CC4CC(CC(C4)C2)C3)c1 [Example 16, 3-[[4′-Chloro-3′-[[(tricyclo[3.3.1.1^3,7]dec-1-ylmethyl)amino]carbonyl][1,1′-biphenyl]-2-yl]oxy]-propanoic acid]"
16,165 to 168 °C,"O=C(NCC12CC3CC(CC(C3)C1)C2)c1cc(-c2ncc(Cl)cc2C(=O)O)ccc1Cl [Example 17, 5-Chloro-2-[4-chloro-3-[[(tricyclo[3.3.1.1^3,7]dec-1-ylmethyl)amino]carbonyl]phenyl]-3-pyridinecarboxylic acid]"
17,151 to 154 °C,"Cc1cccc(C(=O)O)c1-c1ccc(Cl)c(C(=O)NCC23CC4CC(CC(C4)C2)C3)c1 [Example 18, 4′-Chloro-6-methyl-3′-[[(tricyclo[3.3.1.1^3,7]dec-1-ylmethyl)amino]carbonyl]-[1,1′-biphenyl]-2-carboxylic acid]"

row,melting point,SMILES
1,140 to 143 °C,"O=C(NCC12CC3CC(CC(C3)C1)C2)c1cc(-c2ccsc2C(=O)O)ccc1Cl [Example 19, 3-[4-Chloro-3-[[(tricyclo[3.3.1.1^3,7]dec-1-ylmethyl)amino]carbonyl]phenyl]-2-thiophenecarboxylic acid]"
2,170 to 173 °C,"O=C(O)c1cccc(-c2ccc(Cl)c(C(=O)NCC34CC5CC(CC(C5)C3)C4)c2)n1 [Example 20, 6-[4-Chloro-3-[[(tricyclo[3.3.1.1^3,7]dec-1-ylmethyl)amino]carbonyl]phenyl]-2-pyridinecarboxylic acid]"
3,254 to 257 °C,"O=C(O)c1coc(-c2ccc(Cl)c(C(=O)NCC34CC5CC(CC(C5)C3)C4)c2)n1 [Example 23, 2-[4-Chloro-3-[[(tricyclo[3.3.1.1^3,7]dec-1-ylmethyl)amino]carbonyl]phenyl]-4-oxazolecarboxylic acid]"
4,214 to 216 °C,"Cc1ccc(-c2ccc(Cl)c(C(=O)NCC34CC5CC(CC(C5)C3)C4)c2)c(C(=O)O)c1 [Example 24, 4′-Chloro-4-methyl-3′-[[(tricyclo[3.3.1.1^3,7]dec-1-ylmethyl)amino]carbonyl]-[1,1′-biphenyl]-2-carboxylic acid]"
5,160 to 162 °C,"CS(=O)(=O)NC(=O)c1cccc(-c2ccc(Cl)c(C(=O)NCC34CC5CC(CC(C5)C3)C4)c2)n1 [Example 25, 6-[4-Chloro-3-[[(tricyclo[3.3.1.1^3,7]dec-1-ylmethyl)amino]carbonyl]phenyl]-N-(methylsulfonyl)-2-pyridinecarboxamide]"
6,160 to 164 °C,"O=C(O)CNc1ncccc1-c1ccc(Cl)c(C(=O)NCC23CC4CC(CC(C4)C2)C3)c1 [Example 26, N-[3-[4-Chloro-3-[[(tricyclo[3.3.1.1^3,7]dec-1-ylmethyl)amino]carbonyl]phenyl]-2-pyridinyl]-glycine]"
7,115 to 120 °C,"CS(=O)(=O)Nc1cccc(-c2ccc(Cl)c(C(=O)NCC34CC5CC(CC(C5)C3)C4)c2)n1 [Example 27, 2-Chloro-5-[6-[(methylsulfonyl)amino]-2-pyridinyl]-N-(tricyclo[3.3.1.1^3,7]dec-1-ylmethyl)-benzamide]"
8,226 to 229 °C,"O=C(O)COc1ncccc1-c1ccc(Cl)c(C(=O)NCC23CC4CC(CC(C4)C2)C3)c1 [Example 28, [[3-[4-Chloro-3-[[(tricyclo[3.3.1.1^3,7]dec-1-ylmethyl)amino]carbonyl]phenyl]-2-pyridinyl]oxy]-acetic acid]"
9,122 to 126 °C,"O=C(NCC12CC3CC(CC(C3)C1)C2)c1cc(-c2ncccc2OCc2nnn[nH]2)ccc1Cl [Example 29, 2-Chloro-5-[3-(1H-tetrazol-5-ylmethoxy)-2-pyridinyl]-N-(tricyclo[3.3.1.1^3,7]dec-1-ylmethyl)-benzamide]"
10,219 to 221 °C,"COc1ccc(-c2ccc(Cl)c(C(=O)NCC34CC5CC(CC(C5)C3)C4)c2)c(C(=O)O)c1 [Example 30, 4′-Chloro-4-methoxy-3′-[[(tricyclo[3.3.1.1^3,7]dec-1-ylmethyl)amino]carbonyl]-[1,1′-biphenyl]-2-carboxylic acid]"
11,166 to 175 °C (dec.),"Cn1cc(-c2ccc(Cl)c(C(=O)NCC34CC5CC(CC(C5)C3)C4)c2)c(C(=O)O)n1 [Example 31, 4-[4-Chloro-3-[[(tricyclo[3.3.1.1^3,7]dec-1-ylmethyl)amino]carbonyl]phenyl]-1-methyl-1H-pyrazole-3-carboxylic acid]"
12,187 to 190 °C (dec.),"Cn1ncc(-c2ccc(Cl)c(C(=O)NCC34CC5CC(CC(C5)C3)C4)c2)c1C(=O)O [Example 32, 4-[4-Chloro-3-[[(tricyclo[3.3.1.1^3,7]dec-1-ylmethyl)amino]carbonyl]phenyl]-1-methyl-1H-pyrazole-5-carboxylic acid]"
13,151 to 153 °C (dec.),"CN(CC(=O)O)c1nccnc1-c1ccc(Cl)c(C(=O)NCC23CC4CC(CC(C4)C2)C3)c1 [Example 33, N-[3-[4-Chloro-3-[[(tricyclo[3.3.1.1^3,7]dec-1-ylmethyl)amino]carbonyl]phenyl]pyrazinyl]-N-methyl-glycine]"
14,136 to 140 °C,"O=C(NCC12CC3CC(CC(C3)C1)C2)c1cc(-c2nccnc2N2CCC(C(=O)O)CC2)ccc1Cl [Example 34, 1-[3-[4-Chloro-3-[[(tricyclo[3.3.1.1^3,7]dec-1-ylmethyl)amino]carbonyl]phenyl]pyrazinyl]-4-piperidinecarboxylic acid]"
15,108 to 113 °C,"O=C(NCC12CC3CC(CC(C3)C1)C2)c1cc(-c2c(F)cccc2C(=O)O)ccc1Cl [Example 35, 4′-Chloro-6-fluoro-3′-[[(tricyclo[3.3.1.1^3,7]dec-1-ylmethyl)amino]carbonyl]-[1,1′-biphenyl]-2-carboxylic acid]"
16,120 to 124 °C,"O=C(NCC12CC3CC(CC(C3)C1)C2)c1cc(-c2cc(F)ccc2C(=O)O)ccc1Cl [Example 36, 4′-Chloro-5-fluoro-3′-[[(tricyclo[3.3.1.1^3,7]dec-1-ylmethyl)amino]carbonyl]-[1,1′-biphenyl]-2-carboxylic acid]"
